The source of these data is patent publication US12569498B2, “Methods and compositions for the prevention and treatment of ischemia reperfusion injury and infection” (CHILDREN'S NATIONAL MEDICAL CENTER, priority 2019, dated 2026).

“Also recorded” adds a separate entry of the source.

For assay [1] the following is noted: literature, cited from earlier work; for testicular myeloperoxidase activity: acutely; for testicular myeloperoxidase activity / long term spermatogenesis: animal models of testicular torsion.
In assay [2] the test system is CD45+ immune cells in the torsed testis. The experiment in a line: Flow cytometry of CD45+ immune cell infiltrate in testis after testicular torsion. It counts as in vivo, CD1 mice. The note with it: cytisine 0.1 μg/gram i.p. 1 hour before torsion; 18 hours after reperfusion; vs mice without cytisine; P<0.0001. Here is the method:
(§1) Unilateral testicular torsion was induced in mature male CD1 mice by rotating the right testicle 720 degrees for 2 hours. Treatment with cytisine or varenicline was initiated one hour prior or one hour after the creation of testicular torsion. Testes were harvested 18 hours and 30 days following reperfusion. The acute inflammatory response was quantified with FACS analysis, […], reduced glutathione levels and quantification of the expression of IRI markers. Long term (30 day) outcomes were assessed by histologic evaluation, quantification of the expression of pro-fibrotic genes and measurement of testicular weight.
Mice underwent testicular torsion as previously described (Lysiak 2001). Briefly, mice were anesthetized with isoflurane over a heating pad. […]
Eighteen hours after reperfusion of the testis in the cytisine group and 48 hours after reperfusion in the varenicline group, bilateral testes were harvested, homogenized and digested with digestion solution containing 0.5% FBS, 20 mM HEPES, RPMI Medium, 0.057 U/ml DNase I, 1 mg/ml collagenase b. Cells were washed, counted with a hemocytometer and 1 million then diluted to 1 million cells per mL. […] For each sample 300,000 live cells were counted using BD FACSCalibur (BD Biosciences, San Jose, CA) and analyzed with FlowJo 9.0 software (TreeStar, Ashland, OR).

Assay [3] deals with oxidative stress within the testis. The experiment in a line: Myeloperoxidase activity and reduced glutathione levels in testis after testicular torsion. The note with it: cytisine an hour prior to onset of torsion; vs untreated controls. It counts as in vivo, CD1 mice. Here is the method: Mice underwent testicular torsion as previously described (Lysiak 2001). Briefly, mice were anesthetized with isoflurane over a heating pad. The right testis was delivered through a low scrotal incision and rotated counterclockwise 720 degrees to induce ischemia for 2 hours. […] All animals were injected with long-acting buprenorphine (0.1 mg/kg) for long-term pain control prior to being recovered from anesthesia. […] Mice kept for 30 days after surgery were weighed on a weekly basis.
(§2) Cytisine (Sigma-Aldrich, St. Louis, MO) was administered intraperitoneally at a dose of 0.1 μg/gram either 1 hour before torsion or 1 hour after torsion (1 hour prior to detorsion). Varenicline ([…]) was administered as an intraperitoneal injection one hour after the onset of torsion and then continued every 12 hours for a total of 4 doses.
Tissues were harvested and stored at −80° C. until use. Glutathione reductase activity was measured by use of glutathione reductase assay Kit (Sigma-Aldrich, St. Louis, MO). Testis tissue was homogenized in 5% sulfosalicylic Acid (SSA) solution. Samples were then centrifuged and supernatant was reserved. Supernatants were added to a reaction mixture containing 95 mM potassium phosphate buffer, pH 7.0, 0.95 mM EDTA, 0.038 mg/mL NADPH, 0.031 mg/mL DTNB, 0.115 units/mL glutathione reductase, and 0.24% SSA. Absorbance at 412 nm was recorded. Glutathione results were expressed as nm GSH per mL sample.
Following an ischemic event, the initial inflammatory response is characterized by an increase in oxidative stress and production of reactive oxygen species. In order to determine the effect of cytisine treatment on the level of reactive oxygen species (ROS) following testicular torsion, testicular levels of myeloperoxidase (MPO), a marker of neutrophil activation, and reduced glutathione (GSH) levels (an indirect measure of oxidative stress within the testis) were measured.

Assay [4] can be described thus: Testis weight vs contralateral testis 30 days after torsion (testicular atrophy). It counts as in vivo, CD1 mice. The conditions noted are these: 30 days after reperfusion, vs untreated. On the procedure: as §1
(§3) Mice underwent testicular torsion as previously described (Lysiak 2001). Briefly, mice were anesthetized with isoflurane over a heating pad. The right testis was delivered through a low scrotal incision and rotated counterclockwise 720 degrees to induce ischemia for 2 hours. […] All animals were injected with long-acting buprenorphine (0.1 mg/kg) for long-term pain control prior to being recovered from anesthesia. Mice were euthanized either 18 hours or 30 days following torsion. Mice kept for 30 days after surgery were weighed on a weekly basis.
as §2
The degree of testicular atrophy was determined by comparing the weight of the torsed testis to the contralateral control testis 30 days after reperfusion.

Assay [5] can be described thus: Masson trichrome staining and ImageJ quantification of collagen in testis 30 days after torsion. The conditions noted are these: 30 days following torsion, vs untreated, cytisine p<0.01, varenicline p<0.0001. It counts as in vivo, CD1 mice. Here is the method: as §3, §2
Testis tissue was harvested and stored in 70% ethanol. Fixation, embedding, sectioning, and staining were performed by the research pathology core at George Washington University. Sections were cut at a thickness of […]. Tissues were stained for H&E or Masson trichrome. Photographs were scanned at 20× resolution with Olympus VS120 virtual slide microscope system. TIF images were analyzed with ImageJ Fiji software as previously described (Caetano, Fronza et al. 2016). The color deconvolution plugin was used to perform ImageJ analysis on an area measuring 3000 square pixels. Automatic thresholding was performed. The amount of collagen in each area is expressed as the percentage of blue pixels in the image area taken as an average of 3 non-overlapping measurements.

Assay [6] deals with pro-fibrotic genes Col1, Col3, Vim, SMA. The experiment in a line: RT-PCR of pro-fibrotic markers in testis 30 days after torsion. The class given is in vivo, CD1 mice. The conditions noted are these: for relative expression of collagen 1 (Col1) / relative expression of collagen 3 (Col3) / relative expression of smooth muscle actin (Sma) / relative expression of vimentin (Vim): 30 days following torsion, vs untreated. On the procedure: as §3, §2
RNA was isolated from testis tissue using RNEasy mini kit (Qiagen, Hilden, Germany) using the manufacturer's protocol. RNA concentration was measured with Nanodrop 8000 (Thermo Scientific, Waltham, MA). cDNA was synthesized using Superscript First-Strand Synthesis system for RT-PCR (Invitrogen, Carlsbad, CA) on a GeneAmp PCR System 9700 (Applied Biosystems, Foster City, CA) Real-Real-time PCR was performed using QuantStudio 7 Flex (Applied Biosystems, Foster City, CA). Software Quantstudio Real-Time PCR Software (Thermo Fisher Scientific, Waltham, MA). TaqMan Gene Expression Assays (Applied Biosystems, Foster City, CA). Standard TaqMan primers were used for Col1, Col3, Vim, SMA.

For assay [7] the following is noted: cited from earlier work.
The target in assay [8] is α7nAChR (Homo sapiens, UniProt P36544). The conditions noted are these: peak concentrations in smokers / levels with therapeutic dosing in humans (Campling 2013); cited from earlier work.
Chain of α7nAChR (P36544 23-502): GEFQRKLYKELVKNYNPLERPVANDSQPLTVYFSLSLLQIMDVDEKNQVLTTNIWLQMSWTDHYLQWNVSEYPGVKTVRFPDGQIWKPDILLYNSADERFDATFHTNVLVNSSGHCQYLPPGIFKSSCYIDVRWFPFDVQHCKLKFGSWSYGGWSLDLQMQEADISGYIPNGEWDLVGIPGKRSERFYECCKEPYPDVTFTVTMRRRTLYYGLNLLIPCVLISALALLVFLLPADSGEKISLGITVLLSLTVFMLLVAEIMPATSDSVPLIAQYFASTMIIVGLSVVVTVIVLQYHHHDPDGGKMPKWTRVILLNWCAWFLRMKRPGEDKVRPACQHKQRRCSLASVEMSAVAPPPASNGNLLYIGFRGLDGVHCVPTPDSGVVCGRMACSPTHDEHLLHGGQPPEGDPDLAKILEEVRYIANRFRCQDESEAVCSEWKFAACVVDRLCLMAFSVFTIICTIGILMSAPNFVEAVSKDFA
In assay [9] the test system is adhesion molecules E-selectin, ICAM-1 and VCAM-1. The note with it: Saeed 2005; cited from earlier work.
Assay [10] is described as follows: Renal scar formation and trichrome collagen quantification after acute pyelonephritis. It counts as in vivo, C3H/HeOuJ mice. The note with it: 21 days following completion of antibiotic therapy; varenicline plus ceftriaxone vs ceftriaxone alone; p=0.001. Here is the method: To initiate pyelonephritis, the bladder was catheterized with a 24-gauge angiocatheter and a total volume of 100 μL of a phosphate-buffered saline containing […] colony forming units (CFU) of CFT073 uropathogenic Escherichia coli (UPEC) was then instilled.
Tissues were preserved in formalin for 72 hours then stored in ethanol. Sections were cut to a 5 μm thickness and stained with H&E or Masson trichrome. Photographs were obtained at 20× resolution with Olympus VS120 virtual slide microscope system. The images were then analyzed with ImageJ Fiji software in order to quantify collagen deposition as previously described (Chen 2017). As collagen deposition would be expected as long-term sequelae of IRI, the trichrome stains of the long-term specimen were examined. All artifacts from the staining process as well as gross collecting system were cropped from these images prior to analysis. A color deconvolution plugin was used to separate the trichrome images into the separate colors. Analysis was performed based upon the percentage of deposition of collagen in the green image compared to the overall area of the kidneys.
Tissues harvested 21 days following completion of antibiotic therapy were subjected to trichome staining to assess for global collagen deposition. After removing artifacts (to ensure only parenchyma was included in the analysis), a color deconvolution plugin was used for ImageJ to divide the images into the respective three colors of the trichrome stain. A threshold was set and collagen was quantified as a percentage of green color in respect to the area of the entire kidney (FIG. 13).

Assay [11] deals with CFT073 uropathogenic Escherichia coli (UPEC). The note with it: kidneys harvested after the final dose of antibiotics; ceftriaxone 250 mg/kg s.c. twice daily for 5 days.
Experimental: As previously described, female C3H/HeOuJ mice were utilized due to a high incidence of vesicoureteral reflux (VUR) (Li 2017; Murawski 2010; Bowen 2013) and reliable creation of pyelonephritis following bladder inoculation. To initiate pyelonephritis, the bladder was catheterized with a 24-gauge angiocatheter and a total volume of 100 μL of a phosphate-buffered saline containing 108 colony forming units (CFU) of CFT073 uropathogenic Escherichia coli (UPEC) was then instilled. Following the initial bladder inoculation, pyelonephritis was allowed to progress untreated for 5 days.
Following the initial 5-day incubation period, 2 mice were sacrificed to confirm infection. The remaining mice were then treated with ceftriaxone alone (control) or ceftriaxone with varenicline (treatment). All mice received 250 mg/kg of subcutaneous ceftriaxone administered twice daily for a period of 5 days. Animals in the treatment group also received a concurrent twice-daily dose of intraperitoneal varenicline (1 mg/kg) during the first 48 hours of treatment. […] Animals were sacrificed at 14 days following the initial bladder inoculation to assess short-term outcomes, while long-term outcomes were assessed 30 days following initial bladder inoculation.
Setting [12] is: administered prior to testicular reperfusion.
Where [13] appears, read: administration prior to warm renal ischemia (Gigliotti 2013).

In the case of `[Zn]` [Zinc], in [1], the testicular myeloperoxidase activity result is recorded as “decrease testicular myeloperoxidase activity” and the long term spermatogenesis entry is listed as “preserve long term spermatogenesis”.
Turning to `Cc1ccc(-c2ncc(Cl)cc2-c2ccc(S(C)(=O)=O)cc2)cn1` [Etoricoxib], in [1] (setting [12]), the apoptosis result is “decrease apoptosis” and the oxidative stress entry is recorded as “decrease”.
With `O=c1cccc2n1C[C@@H]1CNC[C@H]2C1` [cytisine], the “CD45+ immune cells in the torsed testis” value in [2] was “significantly decreased CD45+ immune cells; also recorded: decreases the number of CD45+ cells”. In assay [3], the “myeloperoxidase activity in testis” value was “decreased levels of myeloperoxidase activity” and the “reduced glutathione levels in testis” value is listed as “increased levels reduced glutathione”. For the same molecule, in [4] (drug given an hour after the onset of torsion), the “testicular atrophy (weight of torsed testis vs contralateral control testis)” value was “limited long term testicular atrophy”. Besides, in [4] (drug given an hour after the onset of torsion, listed as Cytisine), the “testicular atrophy (weight of torsed testis vs contralateral control testis)” value was “limited testicular atrophy”. Further, in [4] (drug given an hour prior to torsion, p<0.05), the “testicular atrophy (weight of torsed testis vs contralateral control testis)” value is “significantly less testicular atrophy; also recorded: decreased testicular atrophy”. In assay [5], the “collagen content of testis (trichrome staining, percentage of collagen)” value is given as “untreated group had significantly higher collagen content; also recorded: reduced histologic evidence of testicular fibrosis”. Also, the “collagen content of testis (trichrome staining, percentage of collagen)” value in assay [5] (listed as Cytisine) is “significantly higher percentage of collagen in the untreated animals”. Besides, in assay [6], the “relative expression of collagen 1 (Col1)” value is on record as “reduced the expression; also recorded: significantly decreased”, the “relative expression of collagen 3 (Col3)” value is given as “reduced the expression; also recorded: significantly decreased”, the “relative expression of smooth muscle actin (Sma)” value is listed as “reduced the expression; also recorded: significantly decreased” and the “relative expression of vimentin (Vim)” value is “reduced the expression; also recorded: significantly decreased”. Moreover, in [6] (listed as Cytisine), the “relative expression of collagen 1 (Col1)” value is listed as “significantly decreased”, the “relative expression of collagen 3 (Col3)” value was “significantly decreased”, the “relative expression of smooth muscle actin (Sma)” value is “significantly decreased” and the “relative expression of vimentin (Vim)” value is “significantly decreased”. In [6] (long term (30 day) outcome, genes not itemised), the “expression of pro-fibrotic genes / genetic markers of testicular fibrosis” value is listed as “decreased expression of pro-fibrotic genes”. Further, in assay [7] (setting [13]), the “acute immune infiltrate after warm renal ischemia” value was “reduced the acute immune infiltrate”, the “long term renal fibrosis after warm renal ischemia” value is “prevented long term renal fibrosis” and the “long term renal function after warm renal ischemia” value is “preserved long term renal function”. The “activation of α7nAChR at clinically reached concentrations” value in assay [8] is “do not activate α7nAChR”.
As for `CN1CCC[C@H]1c1cccnc1` [nicotine], the “protection of the kidney from IRI” value in [7] (mouse, after renal artery ligation (Sadis 2007, Yeboah 2008)) is on record as “protects the mouse kidney from IRI”. For the same molecule, in assay [8], the “activation of α7nAChR at clinically reached concentrations” value is “do not activate α7nAChR”. The “expression of adhesion molecules such as E-selectin, ICAM-1 and VCAM-1” value in assay [9] is listed as “decreasing the expression of adhesion molecules”.
Regarding `CO/N=C(\C(=O)N[C@@H]1C(=O)N2C(C(=O)O)=C(CSc3nc(=O)c(=O)[nH]n3C)CS[C@H]12)c1csc(N)n1` [ceftriaxone], the “collagen deposition in the kidneys (percentage of green pigment per area of entire kidney)” value in assay [10] was “significantly higher”. The “bacterial growth from cultured kidneys” value in [11] was “lack of bacterial growth”.
Regarding `COc1cc(C(C)=O)ccc1O` [Apocynin], in assay [1], the testicular myeloperoxidase activity result is “decrease testicular myeloperoxidase activity” and the long term spermatogenesis entry is on record as “preserve long term spermatogenesis”.
